The record followed here is US20180282279A1, “Pantothenamide Analogues” (Radboud Universitair Medisch Centrum, priority 2014, published 2018).

What all share (type): cell-based
The subject of assay [1] is Plasmodium falciparum NF54 parasites. Kind of assay: P. falciparum asexual blood stage replication assay (SYBR Green). To be noted: NF54, 10% human serum, 72 incubation. The protocol: Compounds were tested on their ability to inhibit replication of the human malaria parasite Plasmodium falciparum. To this end, Plasmodium falciparum NF54 parasites were cultured in RPMI1640 medium supplemented with 367 μM hypoxanthine, 25 mM HEPES, 25 mM sodiumbicarbonate and 10% human type A serum in an automated large-scale culture system as described before (Transactions of the Royal Society of Tropical Medicine and Hygiene, 1982. 76: p. 812-818). Compounds were diluted in DMSO and subsequently in culture medium to reach a DMSO concentration of 0.2%. 50 μl of diluted compound was transferred to a black 96 well plate. A culture of P. falciparum strain NF54 malaria parasites was diluted to a parasitaemia of 0.5% and a hematocrit of 3%. 50 μl of this diluted culture was added to each well in the 96 well plate._The outermost wells of the plate were filled with sterile water to prevent evaporation. The established antimalarial dihydroartemisinin (DHA) in DMSO acted as a positive control (MIN signal), and 0.1% DMSO acted as a negative control (MAX signal). The plates were incubated for 72 at 37° C., 3% 02, 5% CO2, 93% N2. Changes in parasite replication relative to the controls were monitored using the DNA-marker SYBR Green as described previously (Antimicrob Agents Chemother 48:1803-6). Data were analyzed by logistic regression using the formula: Y=Bottom+(Top-Bottom)/(1+10̂((Log IC50−X)*HillSlope)) and a least squares method to find the best fit.
Using similar methods, IC50 values were determined for a variety of inverted pantothenamides, as listed in table 1 (see section: ‘Detailed description of the invention’)

A further assay deals with Streptococcus pyogenes. As to the kind of experiment: Bacterial growth assay and MIC determination, S. pyogenes. To be noted: Streptococcus pyogenes; Table 1; most sensitive species S. pyogenes (SP); read-out: MIC (μg/ml) for most sensitive bacterial species. The protocol: (§1) Strains of Escherichia coli, Staphylococcus aureus and Staphylococcus epidermidis, were grown overnight in 1% Bacto tryptone medium (BD, Sparks, Md.). Streptococcus pyogenes was grown overnight in Bacto Todd Hewitt Broth medium (BD, Sparks, Md.). Cultures were then diluted 1:1,000 in fresh assay medium supplemented with or without 20% fetal bovine serum (FBS; HyClone, Celbio, Logan, Utah) and added to 96-well sterile enzyme-linked immunosorbent assay (ELISA) plates (100 μl per well). The compounds to be tested were diluted in the medium without serum and added to the bacteria (100 μl per well). Plates were incubated at 37° C., and bacterial growth was monitored over time by reading the optical density at 490 nm using a microplate reader (model 450; Bio-Rad Laboratories Inc., Hercules, Calif.). Streptococcus pneumoniae strains were grown to mid-log phase (OD620 of 0.3) and stored in 15% glycerol at […] till further use. Minimal inhibitory concentration (MIC) of antibiotics was determined according to standard procedures. Bacteria were diluted 10-fold in Mueller-Hinton medium (BD, Sparks, Md.) and added to 96-well sterile ELISA plates (150 μl per well). The compounds to be tested were diluted in the medium without serum and added to the bacteria (150 μl per well). Plates were incubated overnight at 37° C. in 5% CO2. The MIC was defined as the lowest concentration of compound at which no growth was visible with the naked eye.

Assay [2] concerns S. aureus (SA), S. epidermidis (SE), S. pyogenes (SP), S. pneumoniae (SPn). Kind of assay: MIC for most sensitive bacterial species (panel). To be noted: Table 1, no species named, read-out: MIC (μg/ml) for most sensitive bacterial species. The protocol: as §1
Assay [3] concerns Staphylococcus epidermidis. Kind of assay: Bacterial growth assay and MIC determination, S. epidermidis. The following applies: Staphylococcus epidermidis; Table 1; most sensitive species S. epidermidis (SE); read-out: MIC (μg/ml) for most sensitive bacterial species. The protocol:
as §1

Another assay concerns Staphylococcus aureus. As to the kind of experiment: Bacterial growth assay and MIC determination, S. aureus. To be noted: Staphylococcus aureus, Table 1; most sensitive species S. aureus (SA); read-out: MIC (μg/ml) for most sensitive bacterial species. On the procedure: as §1
The mark [4] stands for this setting: Streptococcus pneumoniae, marked *: not tested for S. pneumoniae.

In brackets after ≈: the same amount, converted by molar mass. Where two headings read alike, the source gives them in different places. A value given as a limit tells only on which side of the number the result lay.

Compound `CCCSCC(=O)NCCNC(=O)[C@H](O)C(C)(C)CO` [CXP14.18-037] showed an IC50 in assay [1] of 1.34 µM. In addition, the MIC in the assay on Streptococcus pyogenes stood at 4 µg/mL (≈ 13.1 µM).
For the compound `CCCCC(=O)NCCNC(=O)[C@H](O)C(C)(C)CO` [CXP14.18-028], it took 0.85 µM to reach half-maximal inhibition in assay [1] (IC50). Also, in the assay on Streptococcus pyogenes, the MIC was 2 µg/mL (≈ 7.29 µM).
The like results for `C=CCCCCC(=O)NCCNC(=O)[C@H](O)C(C)(C)CO` [CXP14.18-010] were, in that order, 0.71 µM and 16 µg/mL (≈ 53.3 µM).
The like results for `C=CCCC(=O)NCCNC(=O)[C@H](O)C(C)(C)CO` [CXP14.18-007] were, in that order, 5.15 µM and 16 µg/mL (≈ 58.7 µM).
On to `CC(C)(CO)[C@@H](O)C(=O)NCCNC(=O)CCc1ccccc1Cl` [CXP18.6-027], for which the MIC in assay [2] (tested for SA, SE, SP and SPn) is over 32 µg/mL. In assay [1], the IC50 was determined as 0.58 µM.
`CC(C)(CO)[C@@H](O)C(=O)NCCNC(=O)CCc1ccc(C(F)(F)F)cc1` [CXP18.6-042]: in assay [2] (tested for SA, SE, SP and SPn), the MIC was over 32 µg/mL. The compound further registered an IC50 in assay [1] of 0.21 µM.
`CSCCCC(=O)NCCNC(=O)[C@H](O)C(C)(C)CO` [CXP14.18-034]: it took 0.62 µM to reach half-maximal inhibition in assay [1] (IC50). Moreover, the MIC with Streptococcus pyogenes was 8 µg/mL (≈ 26.1 µM).
In the case of `CC(C)(CO)[C@@H](O)C(=O)NCCNC(=O)CCc1ccncc1` [CXP18.6-056], the MIC in assay [2] (setting [4]) was over 32 µg/mL. The compound further showed an IC50 in assay [1] of 0.47 µM.
`CC(C)(CO)[C@@H](O)C(=O)NCCNC(=O)Cc1ccccc1` [CXP18.6-007]: it took 3.9 µM to reach half-maximal inhibition in assay [1] (IC50). In addition, the MIC in the assay with Streptococcus pyogenes amounted to 16 µg/mL (≈ 51.9 µM).
In the case of `CC(C)(CO)[C@@H](O)C(=O)NCCNC(=O)CCc1ccc(Cl)cc1` [CXP18.6-028], the MIC in assay [2] (tested for SA, SE, SP and SPn) is over 32 µg/mL. This compound also displayed an IC50 in assay [1] of 0.19 µM.
With `CC(C)(C)c1ccc(CCC(=O)NCCNC(=O)[C@H](O)C(C)(C)CO)cc1` [CXP18.6-043], the MIC in assay [2] (tested for SA, SE, SP and SPn) was over 32 µg/mL. This compound also came in with a half-inhibitory concentration (IC50) in assay [1] of 0.15 µM.
As for `CC(C)(CO)[C@@H](O)C(=O)NCCNC(=O)CCCc1ccccc1` [CXP18.6-008], the MIC in assay [3] is 16 µg/mL (≈ 47.6 µM). Further, 0.57 µM corresponded to half-maximal inhibition in assay [1] (IC50).
As to `CC(C)CCC(=O)NCCNC(=O)[C@H](O)C(C)(C)CO` [CXP14.18-005], in assay [1], it took 2.78 µM to reach half-maximal inhibition (IC50). Further, the MIC in the assay on Streptococcus pyogenes is 8 µg/mL (≈ 27.7 µM).
As for `CCCCCCCCCCC(=O)NCCNC(=O)[C@H](O)C(C)(C)CO` [CXP14.18-012], the MIC in assay [3] came to 8 µg/mL (≈ 22.3 µM). In assay [1], this compound had an IC50 of over 10 µM.
On to `CC(C)(CO)[C@@H](O)C(=O)NCCCNC(=O)CCc1ccccc1` [CXP18.6-010], for which, in assay [2] (tested for SA, SE, SP and SPn), the MIC is over 32 µg/mL. The compound also displayed an IC50 in assay [1] of 7.5 µM.
Regarding `CC(C)(CO)[C@@H](O)C(=O)NCCNC(=O)CCc1ccccc1C(F)(F)F` [CXP18.6-038], the MIC in assay [3] came to 32 µg/mL (≈ 82 µM). Further, the IC50 in assay [1] turned out to be 6.4 µM.
As to `C#CCCCC(=O)NCCNC(=O)[C@H](O)C(C)(C)CO` [CXP14.18-016], in assay [1], the IC50 came to 0.81 µM. Also, the MIC with Streptococcus pyogenes came out at 32 µg/mL (≈ 113 µM).
`CCC(=O)NCCNC(=O)[C@H](O)C(C)(C)CO` [CXP14.18-019]: the MIC in assay [2] (setting [4]) is over 32 µg/mL. The IC50 in assay [1] is 0.17 µM.
In turn, `C=CC(C)CC(=O)NCCNC(=O)[C@H](O)C(C)(C)CO` (stereo partly shown) [CXP14.18-014] had an IC50 in assay [1] of 4.93 µM. The MIC in the assay with Streptococcus pyogenes is 16 µg/mL (≈ 55.9 µM).
Turning to `C[C@@H](CNC(=O)[C@H](O)C(C)(C)CO)NC(=O)CCc1ccccc1F` [MMV689258], the MIC in assay [2] (tested for SA, SE, SP and SPn) was over 32 µg/mL. In addition, the IC50 in assay [1] was determined as 0.004 µM.
Turning to `CC(C)(CO)[C@@H](O)C(=O)NCCNC(=O)CCc1ccc(F)cc1` [CXP18.6-019], the MIC in assay [3] came to 32 µg/mL (≈ 94 µM). Also, the midpoint of inhibition in assay [1], the IC50, lay at 0.42 µM.
For `CC(C)(CO)[C@@H](O)C(=O)NCCNC(=O)CCc1cccc(F)c1` [CXP18.6-018], the IC50 in assay [1] was 0.1 µM. The MIC with Streptococcus pyogenes came out at 16 µg/mL (≈ 47 µM).
The like results for `CCOCCC(=O)NCCNC(=O)[C@H](O)C(C)(C)CO` [CXP14.18-035] were, in that order, over 10 µM and 16 µg/mL (≈ 55.1 µM).
For `CC(C)(CO)[C@@H](O)C(=O)NCCNC(=O)CCc1ccco1` [CXP18.6-057], the MIC (in assay [3]; in the assay on Staphylococcus aureus) was 16 µg/mL (≈ 51.2 µM) throughout. The compound further had an IC50 in assay [1] of 0.4 µM.
For the compound `CC(C)(CO)[C@@H](O)C(=O)NCCNC(=O)CCc1ccccn1` [CXP18.6-055], in assay [3], the MIC was found to be 32 µg/mL (≈ 99 µM). The compound further displayed an IC50 in assay [1] of 1.6 µM.
Regarding `CC(C)(CO)[C@@H](O)C(=O)NCCCNC(=O)Cc1ccccc1` [CXP18.6-009], the MIC in assay [2] (tested for SA, SE, SP and SPn) is over 32 µg/mL. The IC50 in assay [1] was determined as 9.2 µM.
The like results for `COc1ccc(CCC(=O)NCCNC(=O)[C@H](O)C(C)(C)CO)cc1` [CXP18.6-022] were, in that order, over 32 µg/mL and 1 µM.
Regarding `CC(C)(CO)[C@@H](O)C(=O)NCCNC(=O)/C=C/c1ccccc1` [CXP18.6-048], the MIC in assay [3] came to 16 µg/mL (≈ 49.9 µM). Besides, the IC50 in assay [1] amounted to 2.2 µM.
Consider `CCCC(=O)NCCNC(=O)[C@H](O)C(C)(C)CO` [CXP14.18-020], for which the IC50 in assay [1] worked out at 2 µM. Besides, the MIC with Streptococcus pyogenes was 32 µg/mL (≈ 123 µM).
`CCSCCC(=O)NCCNC(=O)[C@H](O)C(C)(C)CO` [CXP14.18-038]: the IC50 in assay [1] was found to be 0.37 µM. Further, the MIC with Streptococcus pyogenes came to 8 µg/mL (≈ 26.1 µM).
With `C[C@H](CNC(=O)[C@H](O)C(C)(C)CO)NC(=O)CCc1ccccc1F` [MMV689260], the MIC in assay [2] (tested for SA, SE, SP and SPn) is over 32 µg/mL. This compound showed a half-inhibitory concentration (IC50) in assay [1] of 0.21 µM.
Consider `C=CCCCC(=O)NCCNC(=O)[C@H](O)C(C)(C)CO` [CXP14.18-008], for which, in assay [1], the midpoint of inhibition, the IC50, lay at 0.74 µM. In the assay with Streptococcus pyogenes, the MIC was determined as 16 µg/mL (≈ 55.9 µM).
Regarding `CC(C)(CO)[C@@H](O)C(=O)NCCNC(=O)CCc1ccc(F)cc1F` [CXP18.6-069], in assay [3], the MIC is 4 µg/mL (≈ 11.2 µM). In assay [1], the IC50 is 0.11 µM.

What is called IC50 is the concentration that inhibits the measured activity by half.
